Tests used:
[1] = for viscosity / speed of sound / mass density: 101 kPa, Liquid; for viscosity: Capillary tube (Ostwald / Ubbelohde) method; for speed of sound: Sing-around technique in a fixed-path interferometer; for mass density: Vibrating tube method
[2] = refractive index (Na D-line) (dimensionless); xn = mol fraction of the nth substance listed; settings: 101 kPa, Liquid, Standard Abbe refractometry
[3] = xn = mol fraction of the nth substance listed; settings: 101 kPa, Liquid; for speed of sound: Sing-around technique in a fixed-path interferometer; for mass density: Vibrating tube method

CCC[N+]1(C)CCCC1.O=S(=O)([N-]S(=O)(=O)C(F)(F)F)C(F)(F)F
[1]
Settings | mass density [kg/m3] | speed of sound [m/s] | viscosity [mPa·s]
293.15 K | 1432.42 | 1281.9 | 66.61
298.15 K | 1427.86 | 1270.6 | 49.35
303.15 K | 1423.37 | 1259 | 38.52
308.15 K | 1418.86 | 1249.1 | 30.93
313.15 K | 1414.37 | 1238.2 | 26.17
318.15 K | 1409.9 | 1227.4 | 22.39
323.15 K | 1405.45 | 1216.9 | 19.31
328.15 K | 1401.01 | 1205.9 | 17.13
333.15 K | 1396.59 | 1196.4 | 15.07
338.15 K | 1392.17 | 1186.3 | 13.36
343.15 K | 1387.77 | 1176.2 | 11.93

Settings | Normal melting temperature [°C]
[1], Crystal, DTA | 11.00

CCC[N+]1(C)CCCC1.O=S(=O)([N-]S(=O)(=O)C(F)(F)F)C(F)(F)F + CCO
Settings | mass density, 298.15 K [kg/m3] | mass density, 303.15 K [kg/m3] | mass density, 308.15 K [kg/m3] | refractive index, 298.15 K | refractive index, 303.15 K | refractive index, 308.15 K | speed of sound, 298.15 K [m/s] | speed of sound, 303.15 K [m/s] | speed of sound, 308.15 K [m/s]
[2], x2 = 0 | – | – | – | 1.42064 | 1.41926 | 1.41782 | – | – | –
[2], x2 = 0.016 | – | – | – | 1.42045 | 1.41907 | 1.41766 | – | – | –
[2], x2 = 0.0703 | – | – | – | 1.41973 | 1.41834 | 1.4169 | – | – | –
[2], x2 = 0.0986 | – | – | – | 1.41935 | 1.41789 | 1.41649 | – | – | –
[2], x2 = 0.2816 | – | – | – | 1.41621 | 1.41485 | 1.41339 | – | – | –
[2], x2 = 0.4082 | – | – | – | 1.41338 | 1.412 | 1.41052 | – | – | –
[2], x2 = 0.5143 | – | – | – | 1.41021 | 1.40877 | 1.40732 | – | – | –
[2], x2 = 0.6077 | – | – | – | 1.40661 | 1.40521 | 1.40398 | – | – | –
[2], x2 = 0.7059 | – | – | – | 1.40144 | 1.39995 | 1.39878 | – | – | –
[2], x2 = 0.8034 | – | – | – | 1.39395 | 1.39236 | 1.39104 | – | – | –
[2], x2 = 0.9002 | – | – | – | 1.38228 | 1.38064 | 1.37888 | – | – | –
[2], x2 = 0.9468 | – | – | – | 1.37383 | 1.372 | 1.37027 | – | – | –
[3], x2 = 0 | 1427.86 | 1423.26 | 1418.83 | – | – | – | 1270.6 | 1259.5 | 1248.6
[3], x2 = 0.016 | 1425.68 | 1421.16 | 1416.65 | – | – | – | 1269.2 | 1258.2 | 1247.2
[3], x2 = 0.0703 | 1418.06 | 1413.56 | 1409.05 | – | – | – | 1266.3 | 1255.2 | 1244.3
[3], x2 = 0.0986 | 1413.89 | 1409.36 | 1404.83 | – | – | – | 1264.6 | 1253 | 1242.6
[3], x2 = 0.2816 | 1380.66 | 1376.07 | 1371.48 | – | – | – | 1252.4 | 1241.1 | 1229.9
[3], x2 = 0.4082 | 1349.44 | 1344.8 | 1340.16 | – | – | – | 1241 | 1229.5 | 1218.2
[3], x2 = 0.5143 | 1315.09 | 1310.32 | 1305.65 | – | – | – | 1228.8 | 1217.2 | 1205.7
[3], x2 = 0.6077 | 1275.55 | 1270.84 | 1266.14 | – | – | – | 1215.8 | 1203.9 | 1192.1
[3], x2 = 0.7059 | 1219.23 | 1214.5 | 1209.77 | – | – | – | 1198.4 | 1186.2 | 1174
[3], x2 = 0.8034 | 1138.92 | 1134.21 | 1129.48 | – | – | – | 1177.6 | 1164.7 | 1151.9
[3], x2 = 0.9002 | 1015 | 1010.37 | 1005.72 | – | – | – | 1155 | 1140.9 | 1127
[3], x2 = 0.9468 | 927.02 | 922.49 | 917.93 | – | – | – | 1146.8 | 1131.8 | 1117
